One compound from publication PMC6273978, “Synthesis and Pharmacological Evaluation of Novel Pleuromutilin Derivatives with Substituted Benzimidazole Moieties” (Molecules, 2016) can be followed below.

Some results are limits rather than exact numbers.

Holding throughout (assay): Cytochrome P450 inhibition cocktail assay, human liver microsomes
Holding throughout (assay type): in vitro ADME
A general note: Liver microsomes are vesicles of endoplasmic reticulum, rich in cytochrome P450 enzymes.

Test [1] has as its target T1, CYP1A2 (Homo sapiens, UniProt P05177).
T1 construct: Twenty microliters of human liver microsomes (final concentration of 0.3 mg/mL); from tissue; host or cells: human liver microsomes
T1 sequence (P05177 1-516): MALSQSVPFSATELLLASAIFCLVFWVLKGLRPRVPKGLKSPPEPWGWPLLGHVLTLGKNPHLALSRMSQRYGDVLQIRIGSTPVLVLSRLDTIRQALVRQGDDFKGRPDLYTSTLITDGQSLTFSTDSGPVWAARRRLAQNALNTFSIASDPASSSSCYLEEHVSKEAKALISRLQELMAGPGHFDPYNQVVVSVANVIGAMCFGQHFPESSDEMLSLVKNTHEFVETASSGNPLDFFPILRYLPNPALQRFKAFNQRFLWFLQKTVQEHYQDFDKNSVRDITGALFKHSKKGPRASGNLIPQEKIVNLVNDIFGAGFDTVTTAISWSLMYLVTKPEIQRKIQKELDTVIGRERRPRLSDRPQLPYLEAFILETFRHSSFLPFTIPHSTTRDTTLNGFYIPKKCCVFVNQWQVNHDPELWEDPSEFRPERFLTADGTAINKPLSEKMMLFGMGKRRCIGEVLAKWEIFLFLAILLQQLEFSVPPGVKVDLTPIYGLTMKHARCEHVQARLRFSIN
The settings on record: probe phenacetin, metabolite acetaminophen. How it is done:
(§1) The cytochrome P450 (CYP) proteins form a large family of heme proteins that catalyze many reactions involved xenobiotic metabolism and biosynthesis of cholesterol, steroids, and other lipid components. Some chemicals could affect the disposition of conventional pharmaceuticals through the inhibition of CYP450 enzymes. […] The selective probe substrate concentrations were prepared near to its respective Km value, and the compound 3 concentration range is from […].
(§2) Compound 3 was screened for its ability to inhibit cytochrome P450 using a cocktail assay described previously. Briefly, 50 μL of compound 3 was added to 96-well plates, with final concentrations of 0.05, 0.1, 0.5, 1, 10, 50, and 100 μM, respectively. Twenty microliters of human liver microsomes (final concentration of 0.3 mg/mL) and 20 μL of probe substrates (Table 3) in 0.1 M Tris were added. After preincubation at 37 °C for 10 min, 10 μL of NADPH was added (final concentration of 1 mM), and the reaction started to incubate at the same temperature for 15 min. The reactions were then quenched by the addition of 100 μL of acetonitrile with a mixture of propranolol and nadolol (50 nM) used as an internal standard. After reactions were finished, the plates were centrifuged and the supernatants were analyzed for the five metabolites (Table 3) by LC/MS/MS.

The target in test [2] is T2, CYP2C9 (Homo sapiens, UniProt P11712).
T2 construct: Twenty microliters of human liver microsomes (final concentration of 0.3 mg/mL); from tissue; host or cells: human liver microsomes
T2 sequence (P11712 whole entry): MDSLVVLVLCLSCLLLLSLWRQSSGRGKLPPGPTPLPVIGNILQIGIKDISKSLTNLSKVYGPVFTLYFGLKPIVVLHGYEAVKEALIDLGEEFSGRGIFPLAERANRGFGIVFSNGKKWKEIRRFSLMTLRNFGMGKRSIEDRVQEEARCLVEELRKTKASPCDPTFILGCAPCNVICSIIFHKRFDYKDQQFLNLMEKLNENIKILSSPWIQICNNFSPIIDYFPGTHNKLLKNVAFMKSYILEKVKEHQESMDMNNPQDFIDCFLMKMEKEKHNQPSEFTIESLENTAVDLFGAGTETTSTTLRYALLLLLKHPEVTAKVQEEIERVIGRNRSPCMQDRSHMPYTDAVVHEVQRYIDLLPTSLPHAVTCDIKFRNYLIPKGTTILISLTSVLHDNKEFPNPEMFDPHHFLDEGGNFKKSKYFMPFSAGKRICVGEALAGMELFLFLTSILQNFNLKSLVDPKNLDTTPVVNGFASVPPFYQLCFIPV
The settings on record: probe diclofenac, metabolite 4-OH-diclofenac. As for the experimental part: as §1, §2

The target of test [3] is T3, CYP2D6 (Homo sapiens, UniProt P10635).
T3 construct: Twenty microliters of human liver microsomes (final concentration of 0.3 mg/mL); from tissue; host or cells: human liver microsomes
T3 sequence (P10635 whole entry): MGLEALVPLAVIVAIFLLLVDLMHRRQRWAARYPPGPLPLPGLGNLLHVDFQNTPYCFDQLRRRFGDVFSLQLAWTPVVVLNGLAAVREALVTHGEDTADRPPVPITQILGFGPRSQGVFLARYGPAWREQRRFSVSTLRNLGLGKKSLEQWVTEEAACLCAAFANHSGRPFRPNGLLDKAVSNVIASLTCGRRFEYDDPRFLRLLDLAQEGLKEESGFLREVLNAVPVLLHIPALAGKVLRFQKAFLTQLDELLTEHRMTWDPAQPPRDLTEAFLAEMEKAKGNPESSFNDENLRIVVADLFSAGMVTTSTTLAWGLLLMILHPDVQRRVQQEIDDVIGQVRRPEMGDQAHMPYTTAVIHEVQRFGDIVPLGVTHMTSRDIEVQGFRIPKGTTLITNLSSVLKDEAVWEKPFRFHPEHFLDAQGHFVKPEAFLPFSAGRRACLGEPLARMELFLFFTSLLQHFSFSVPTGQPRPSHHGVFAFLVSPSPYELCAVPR
To be noted: probe dextromethorphan, metabolite dextrophan. As for the experimental part: as §1, §2

For test [4], the target named is T4, CYP3A4 (Homo sapiens, UniProt P08684).
T4 construct: Twenty microliters of human liver microsomes (final concentration of 0.3 mg/mL); from tissue; host or cells: human liver microsomes
T4 sequence (P08684 whole entry): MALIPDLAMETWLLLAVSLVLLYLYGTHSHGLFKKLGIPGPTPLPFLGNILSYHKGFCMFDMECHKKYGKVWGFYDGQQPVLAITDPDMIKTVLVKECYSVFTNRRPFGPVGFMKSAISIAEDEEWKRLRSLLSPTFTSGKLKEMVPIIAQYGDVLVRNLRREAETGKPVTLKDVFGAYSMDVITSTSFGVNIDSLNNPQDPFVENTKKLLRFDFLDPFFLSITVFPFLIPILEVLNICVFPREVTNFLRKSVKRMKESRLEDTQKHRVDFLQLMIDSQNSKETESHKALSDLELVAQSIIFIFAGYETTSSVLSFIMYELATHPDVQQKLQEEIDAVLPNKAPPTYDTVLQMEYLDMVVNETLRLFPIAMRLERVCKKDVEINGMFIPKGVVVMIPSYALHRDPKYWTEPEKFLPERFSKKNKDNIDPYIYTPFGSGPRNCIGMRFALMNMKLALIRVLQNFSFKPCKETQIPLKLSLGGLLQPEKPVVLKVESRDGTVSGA
To be noted: probe midazolam, metabolite 1-OH-midazolam. As for the experimental part:
as §1, §2

Consider `C=C[C@]1(C)C[C@@H](OC(=O)CSc2nc3ccc(N)cc3[nH]2)[C@]2(C)[C@H](C)CC[C@]3(CCC(=O)[C@H]32)[C@@H](C)[C@@H]1O` [Compound 3, 14-O-((5-Amino-benzimidazole-2-yl)thioacetyl) Mutilin], for which the IC50 (in general, the midpoint of a concentration-inhibition curve) was greater than 50 µM in test [1], 10.7 µM in test [2], greater than 100 µM in test [3] and 1.69 µM in test [4].
